Active and inactive are the calls of the source. No cut-off for these calls is given here.
The compounds below were run against T1, Cystathionine gamma-lyase (Homo sapiens, UniProt P32929) (assay: Inhibition of cystathionine gamma-lyase (unknown origin)).
T1 sequence (P32929 whole entry): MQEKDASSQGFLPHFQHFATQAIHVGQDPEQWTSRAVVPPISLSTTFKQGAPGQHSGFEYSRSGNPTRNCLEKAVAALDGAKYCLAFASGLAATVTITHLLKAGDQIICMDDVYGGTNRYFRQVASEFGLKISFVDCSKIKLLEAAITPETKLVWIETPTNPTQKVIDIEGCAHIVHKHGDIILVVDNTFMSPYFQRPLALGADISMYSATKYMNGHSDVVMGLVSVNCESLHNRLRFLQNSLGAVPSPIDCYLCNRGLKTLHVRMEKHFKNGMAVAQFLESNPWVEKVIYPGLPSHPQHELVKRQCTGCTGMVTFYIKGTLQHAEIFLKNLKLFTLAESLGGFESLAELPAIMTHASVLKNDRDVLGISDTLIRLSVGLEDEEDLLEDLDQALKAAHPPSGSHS

SMILES	IC50 [µM]
CC(C)(S)[C@@H](N)C(=O)O [PENICILLAMINE]	270
C#CCNC(=O)[C@H]1CSC(=O)N1	30
NCCO/C=C/[C@H](N)C(=O)O	1.1
N=C1C=C(N)C(=O)c2[nH]c(=O)ccc21	6.3

The compounds below were run against T1, Cystathionine gamma-lyase (assay: Inhibition of cystathionine gamma-lyase (unknown origin) assessed as reduction in cysteine formation from CPM at 40 uM using L-cystathionine incubated for 7 mins by fluorescence-based primary assay).

SMILES	inhibition [%]
CSC1=NNC(c2ccccn2)S1 (stereo not given)	> 30

These compounds were tested against T1, Cystathionine gamma-lyase (assay: Reversible inhibition of cystathionine gamma-lyase (unknown origin) assessed as reduction in cysteine formation from CPM using L-cystathionine at 50 uM incubated for 2 hrs followed by dialysis for 18 to 48 hrs by fluorescence-based primary assay).

SMILES	inhibition
CSC1=NNC(c2ccccn2)S1 (stereo not given)	Active

What follows are compounds tested against T1, Cystathionine gamma-lyase (assay: Inhibition of cystathionine gamma-lyase (unknown origin) assessed as reduction in H2S production at 40 uM using AzMC probe by fluorescence based assay).

SMILES	inhibition
CSC1=NNC(c2ccccn2)S1 (stereo not given)	Active

The compounds below were run against T2, Cystathionine beta-synthase (Homo sapiens) (UniProt P35520) (assay: Inhibition of human recombinant CBS assessed as reduction in H2S production at 40 uM using AzMC probe by fluorescence based assay).
T2 sequence (whole entry): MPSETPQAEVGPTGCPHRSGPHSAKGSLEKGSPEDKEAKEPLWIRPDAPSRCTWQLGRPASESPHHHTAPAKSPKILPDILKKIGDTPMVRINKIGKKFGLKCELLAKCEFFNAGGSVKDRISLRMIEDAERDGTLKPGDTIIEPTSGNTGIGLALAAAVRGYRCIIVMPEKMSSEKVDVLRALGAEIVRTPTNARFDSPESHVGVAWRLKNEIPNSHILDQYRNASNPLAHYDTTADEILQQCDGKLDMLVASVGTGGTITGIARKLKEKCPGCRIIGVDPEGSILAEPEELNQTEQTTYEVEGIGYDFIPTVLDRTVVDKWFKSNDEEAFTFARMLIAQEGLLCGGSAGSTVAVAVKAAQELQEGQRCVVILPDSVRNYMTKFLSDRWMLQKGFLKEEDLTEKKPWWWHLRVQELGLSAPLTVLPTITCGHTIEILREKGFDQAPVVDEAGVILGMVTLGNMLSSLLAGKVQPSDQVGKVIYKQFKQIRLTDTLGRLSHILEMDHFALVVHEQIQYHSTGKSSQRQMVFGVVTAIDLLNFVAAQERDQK

SMILES	inhibition
CSC1=NNC(c2ccccn2)S1 (stereo not given)	inactive

Each compound was assayed against T1, Cystathionine gamma-lyase (assay: Inhibition of cystathionine gamma-lyase (unknown origin) assessed as reduction in cysteine formation from CPM using L-cystathionine pre-incubated for 15 min followed by L-cystathionine and CPM addition and measured after 7 mins by fluorescence-based primary assay).

SMILES	IC50 [µM]
Cc1ccc(NC(=O)CSC(=S)N/N=C/c2cccc(C)n2)cc1	3.5
COc1ccc(NC(=O)CSC(=S)N/N=C/c2ccc(Br)cn2)cc1	> 100
Cc1ccc(NC(=O)CSC(=S)N/N=C/c2cccc(Br)n2)cc1	10
CC(C)(C)c1ccc(NC(=O)CSC(=S)N/N=C/c2cccc(Br)n2)cc1	15
CSC(=S)N/N=C/c1nn(C)cc1Cl	6
CSC(=S)N/N=C/c1ncccc1C	6
CC(C)(C)c1ccc(NC(=O)CSC(=S)N/N=C/c2ccncc2)cc1	40
O=C(CSC(=S)N/N=C/c1ccccn1)Nc1cccc(Br)c1	> 100
CC(C)(C)c1ccc(NC(=O)CSC(=S)N/N=C/c2ccccn2)cc1	3
CSC(=S)N/N=C/c1ccccn1	6
Cc1cccc(/C=N/NC(=S)SCC(=O)Nc2ccc(C(C)(C)C)cc2)n1	6
Cc1ccc(NC(=O)CSC(=S)N/N=C/c2ncccc2C)cc1	2.5
CS/C(S)=N/N=C(\C)c1ccccn1	> 100
COc1ccc(NC(=O)CSC(=S)N/N=C/c2ncccc2F)cc1	1.2
COc1ccc(NC(=O)CSC(=S)N/N=C/c2cscn2)cc1	2.1
Cc1ccc(NC(=O)CSC(=S)N/N=C/c2nn(C)cc2Cl)cc1	3
CSC(=S)N/N=C/c1ccc(Br)cn1	10
COc1ccc(NC(=O)CSC(=S)N/N=C/c2ccccn2)cc1	2
O=C(CSC(=S)N/N=C/c1ncccc1F)Nc1ccc(C(F)(F)F)cc1	6
CSC(=S)N/N=C/c1cccc(C)n1	5
Cc1ccc(NC(=O)CSC(=S)N/N=C/c2ncccc2F)cc1	2

SMILES	IC50 [µM]
COc1ccc(NC(=O)CSC(=S)N/N=C/c2nn(C)cc2Cl)cc1	2.7
O=C(CSC(=S)N/N=C/c1ccccn1)Nc1ccccc1	6
CSC(=S)N/N=C/c1cnccn1	15
CC(C)(C)c1ccc(NC(=O)CSC(=S)N/N=C/c2cccnc2)cc1	12
CSC(=S)N/N=C/c1cc2ccccc2n1C	> 100
CSC(=S)N/N=C/c1ccncc1	40
Cc1ccc(NC(=O)CSC(=S)N/N=C/c2cccnc2)cc1	25
CC(C)(C)c1ccc(NC(=O)CSC(=S)N/N=C/c2ncccc2F)cc1	2
Cn1cc(Cl)c(/C=N/NC(=S)SCC(=O)Nc2ccc(C(C)(C)C)cc2)n1	6
CSC(=S)N/N=C/c1cccc(Br)n1	12
CSC(=S)N/N=C/c1cccnc1	50
COc1ccc(NC(=O)CSC(=S)N/N=C/c2cccc(C)n2)cc1	1.9
CSC1=NNC(c2ccccn2)S1 (stereo not given)	6
CSC(=S)N/N=C/c1c[nH]c2ccccc12	> 100
CSC(=S)N/N=C/c1cc[nH]n1	15
Cc1ccc(NC(=O)CSC(=S)N/N=C/c2ccccn2)cc1	2
CSC(=S)N/N=C/c1cscn1	7
CSC(=S)N/N=C/c1ncccc1F	5
O=C(CSC(=S)N/N=C/c1ccccn1)Nc1ccc(F)cc1	> 100
CC(C)(C)c1ccc(NC(=O)CSC(=S)N/N=C/c2cnccn2)cc1	> 100

Species: Homo sapiens
Assay: Selectivity for cystathionine gamma-lyase (unknown origin) over human recombinant CBS

SMILES	Selectivity ratio
COc1ccc(NC(=O)CSC(=S)N/N=C/c2ncccc2F)cc1	400

Reference: ChEMBL document CHEMBL4130591, “2-Arylidene Hydrazinecarbodithioates as Potent, Selective Inhibitors of Cystathionine γ-Lyase (CSE)” (ACS Med Chem Lett, 2017)
